In US8212016B2, “NPC1L1 orthologues” (Schering Corporation, priority 2006, dated 2012):
Where two headings read alike, the source gives them in different places.

Tests used:
[1] = molecular target: monkey NPC1L1 (Macaca mulatta, UniProt A0MJA5); test: Fluorescence NPC1L1 binding assay, HEK-293 cells, BODIPY-labeled compound 1; design: species or system rhesus monkey
Description: (§1) Cell Culture and Membrane Preparation. Each plasmid pCR3.1 harboring NPC1L1 was prepared using standard molecular biology protocols. Stable cell lines expressing human, rhesus monkey, mouse, rat, hamster, canine or rabbit NPC1L1 were generated using Lipofectamine 2000 transfection reagent in HEK-293 cells according to the manufacturer's protocol. Cells were maintained in DMEM supplemented with 10% FBS, 100 U/ml pen/strep, and 500 μg/ml geneticin at 37° C., 5% CO2. All cell culture reagents were obtained from Invitrogen Life Technologies, (Carlsbad, Calif.). Cell membranes were prepared by lysing cells in 5 mM HEPES with protease inhibitors (Complete™ Protease Inhibitor Cocktail Tablets; Roche Diagnostics Corp., Indianapolis Ind.) for 15 min at 4° C. A membrane pellet was obtained by centrifuging the cell lysates at 12,000×g for 25 min. The membranes were resuspended in 5 mM HEPES with protease inhibitors and triturated with a 21G needle.
(§2) Fluorescence. Cells were plated into 384-well black/clear plates (BD Biosciences, Bedford Mass.) for binding experiments the following day. The media was aspirated. […] Media (20 μl) containing the indicated concentration of compound was then added to the wells. […] The binding reaction was allowed to proceed for 4 hours at 37° C. Subsequently the media was aspirated and the cells washed once with PBS.

[2] = tested on: plasma and liver cholesterol; test: Percent cholesterol lowering in plasma and liver; assay type: in vivo; details: hamster
[3] = molecular target: T1, mouse NPC1L1 (Mus musculus, UniProt Q6T3U4, N476K); test: Fluorescence NPC1L1 binding assay, HEK-293 cells, fluorescent compound 2 as ligand
T1 construct: expressed in transfected cells
Description: as §1, §2
In an effort to show binding to mouse NPC1L1, several related ezetimibe analogs were examined as possible alternatives to fluorescently-labeled (BODIPY) ezetimibe glucuronide (compound 1) in the binding assay. Compound 2, which is a fluorescently labeled synthetic precursor for fluorescently-labeled (BODIPY) ezetimibe glucuronide (compound 1; Burnett et al., Bioorganic and Medicinal Chemistry Letters 12:315-318 (2002)), was identified as a viable option for detection of mouse NPC1L1 binding. Compound 2 contains a methyl ester substitution for the carboxylic acid on the glucuronide portion of the molecule (compound structures shown in FIG. 4A).

[4] = tested on: ^14C-cholesterol absorption; test: Acute cholesterol absorption assay; assay type: in vivo; details: rat, intraduodenal; read-out: rat ED50, inhibition of cholesterol absorption
Description: Acute cholesterol absorption assay. ^14C-cholesterol absorption was determined acutely in rats using conditions previously described (Van Heek et al., J. Pharmacol. Exp. Ther. 283: 157-163 (1997)). Compounds were dissolved in rat bile and delivered (1.0 ml) intraduodenally by bolus injection via an intestinal catheter, followed by 1.0 ml saline rinse (0.9%). Following a 30 min incubation, a cholesterol emulsion containing 3 mg cholesterol and 2 μCi ^14C-cholesterol (3 ml) was delivered to each rat as a bolus via intestinal catheter, followed by 1 ml saline rinse. Animals were sacrificed 90 min later and ^14C-cholesterol levels in plasma, liver, intestinal contents, and intestinal wall were determined.

Ki ([1]; Monkey NPC1L1, competition with compound 1, read-out: Ki): 0.092 µM | difference in affinity versus ezetimibe (compound 3) ([1]; monkey NPC1L1): ~10 fold | Ki ([3]; Mouse NPC1L1, competition with compound 2, read-out: Ki): 9 µM | Ki ([3]; Table 3, Mouse, read-out: Ki Mouse NPC1L1): 5.4 µM
Structure (SMILES): O=C(O)[C@H]1O[C@@H](Oc2ccc([C@@H]3[C@@H](CC[C@H](O)c4ccc(F)cc4)C(=O)N3c3ccc(F)cc3)cc2)[C@H](O)[C@@H](O)[C@@H]1O [compound 4, glucuronidated ezetimibe]
cholesterol lowering Liver ([2]; liver): 92% | cholesterol lowering Plasma ([2]; plasma): 48% | ED50 [4]: 1.9 µg/kg
